± gives the expanded uncertainty stated by the source.
Columns and labels:
[1] = 101 kPa, Liquid, Vibrating tube method
[2] = xn = mol fraction of the nth substance listed; conditions: 101 kPa, Liquid, Vibrating tube method, x2 = 0

NCCO [2-aminoethan-1-ol]
[1]
Conditions	mass density [kg/m3]
293.16 K	1016.34 ± 0.24
303.14 K	1008.4 ± 0.24
313.14 K	1000.41 ± 0.23
323.15 K	992.384 ± 0.23
333.14 K	984.302 ± 0.23
343.14 K	976.141 ± 0.23
353.14 K	967.893 ± 0.23
363.15 K	959.536 ± 0.23

CN(CCO)CCO [N-methyldiethanolamine]
[1]
Conditions	mass density [kg/m3]
293.15 K	1040.6 ± 0.92
303.15 K	1033.02 ± 0.91
313.15 K	1025.4 ± 0.89
323.15 K	1017.74 ± 0.87
333.15 K	1010.03 ± 0.86
343.15 K	1002.25 ± 0.84
353.14 K	994.404 ± 0.83
363.15 K	986.471 ± 0.82

OCCNCCO [diethanolamine]
[1]
Conditions	mass density [kg/m3]
293.15 K	1097.61 ± 0.31
303.15 K	1091.17 ± 0.3
313.15 K	1084.6 ± 0.3
323.15 K	1077.88 ± 0.29
333.14 K	1071.11 ± 0.29
343.14 K	1064.25 ± 0.28
353.14 K	1057.31 ± 0.28
363.15 K	1050.24 ± 0.27

C[S+](C)[O-] [dimethyl sulfoxide]
[1]
Conditions	mass density [kg/m3]
293.14 K	1100.87 ± 0.31
303.15 K	1090.81 ± 0.3
313.14 K	1080.77 ± 0.29
323.14 K	1070.73 ± 0.29
333.15 K	1060.68 ± 0.28
343.14 K	1050.62 ± 0.27
353.14 K	1040.54 ± 0.26
363.15 K	1030.43 ± 0.25

C[S+](C)[O-] [dimethyl sulfoxide] + CN(CCO)CCO
[2]
Conditions	mass density [kg/m3]
293.14 K	1100.87 ± 0.31
303.15 K	1090.81 ± 0.3
313.14 K	1080.77 ± 0.29
323.14 K	1070.73 ± 0.29
333.15 K	1060.68 ± 0.28
343.14 K	1050.62 ± 0.27
353.14 K	1040.54 ± 0.26
363.15 K	1030.43 ± 0.25

C[S+](C)[O-] [dimethyl sulfoxide] + NCCO
[2]
Conditions	mass density [kg/m3]
293.14 K	1100.87 ± 0.31
303.15 K	1090.81 ± 0.3
313.14 K	1080.77 ± 0.29
323.14 K	1070.73 ± 0.29
333.15 K	1060.68 ± 0.28
343.14 K	1050.62 ± 0.27
353.14 K	1040.54 ± 0.26
363.15 K	1030.43 ± 0.25

C[S+](C)[O-] [dimethyl sulfoxide] + OCCNCCO
[2]
Conditions	mass density [kg/m3]
293.14 K	1100.87 ± 0.31
303.15 K	1090.81 ± 0.3
313.14 K	1080.77 ± 0.29
323.14 K	1070.73 ± 0.29
333.15 K	1060.68 ± 0.28
343.14 K	1050.62 ± 0.27
353.14 K	1040.54 ± 0.26
363.15 K	1030.43 ± 0.25
